Among the data in a melting point compilation (Tetko et al.; mined from patent text by program, amines drawn as free bases though some values may be those of a salt) are melting point values, retold here.

The structures appear in SMILES notation. Some results are limits rather than exact numbers.

As to `N#Cc1cc(NC(=O)c2cc3ccccc3o2)ccc1N1CCC(CCO)CC1`, the melting point is 214 °C.

`COc1cc(CO)c(-c2cc3c(cc2CO)OCO3)c(OC)c1OC` yielded a melting point of 123 to 124 °C.

Regarding `CS(=O)(=O)c1ccc(-c2cc(C(=O)CCCO[N+](=O)[O-])nn2C2CCCCC2)cc1`, the melting point fell in the range of 122 to 124 °C.

Take `O=C(O)[C@@H]1CCc2ccccc2N1C(=O)OCc1ccccc1`: the melting point lay in the range of 75 to 79 °C.

For the compound `CC(=O)N1CCc2c([nH]c3ccccc23)C1CCCCl` (configuration not stated), the melting point is 166 to 168 °C.

For the compound `Cc1cc(Oc2cc(C(F)(F)F)nn2C)nc(Cl)n1`, the melting point was found to be 65 °C.

For `COc1cc2c3c(cccc3c1N1CCC(N)C1)C(=O)N(O)C2=O` (configuration not stated), the melting point is 217 to 222 °C.

`CCCN(CCC)C1Cc2cccc3c2N(C1)C(=O)C3` (configuration not stated) registered a melting point of 86 to 88 °C.

Turning to `COC(=O)COc1coc2ccccc2c1=O`, the melting point lay within 114 to 116 °C.

Compound `CCn1ncc2c3onc(-c4ccccc4)c3cnc21` had a melting point of 151 to 153 °C.

Take `CCCCCCc1csc2c(CCCCCC)csc12`: the melting point was in the range of 57.5 to 59.1 °C.

`O=C1NC(=O)c2c1c(-c1ccccc1)c(-c1ccccc1)c1[nH]c3ccc(O)cc3c21` returned a melting point above 300 °C.

`Cn1ccc2c3c(C=O)c4ccccc4cc3ccc21` returned a melting point of 175 to 176 °C.

`COC(=O)CCc1ccc(-n2cnn(CCC3CCN(C(=O)OC(C)(C)C)CC3)c2=O)cc1` came in with a melting point of 139 to 141 °C.

Take `CCCc1cc(-c2csc(-c3ccc(OCC)c(OCC)c3)n2)cc(C(=O)O)c1O`: the melting point is 179 to 180 °C.

`O=C(O)c1ccccc1Oc1cccc(F)c1`: the melting point turned out to be 122 °C.

On to `O=C1Nc2c(Br)cncc2C1(Br)Br`, for which the melting point worked out at 250 °C.

Turning to `CC(=O)N(CCCc1ccccc1)[C@H]1CC[C@H](c2ccc(O)cc2)CC1`, the melting point is 175 to 180 °C.

The compound `O=C1CCC(n2cnc3cc(F)ccc3c2=O)C(=O)N1` (configuration not stated) showed a melting point of 296 to 298 °C.

The compound `CC(C)CC1NC(C)(C)CNC1=O` (configuration not stated) returned a melting point of 112 to 115 °C.

On to `CC1(C)Oc2ccc(C#N)cc2C(Oc2cccnc2)C1(C)O` (configuration not stated), for which the melting point lay within 193 to 196 °C.

For `CN1CCN(CC2CCN(c3ncc4ncnc(Nc5ccc(F)c(Cl)c5)c4n3)CC2)CC1`, the melting point was in the range of 138 to 140 °C.

For the compound `O=c1[nH]c2ccc(Cl)cc2c(=O)n1S(=O)(=O)c1ccc(Cl)cc1`, the melting point was 223 to 225 °C.

As for `CCN1CCc2cc(OC)c(OC)cc2C12CCC(C=O)CC2C1c2cc(OC)c(OC)cc2CCN1C` (configuration not stated), the melting point lay in the range of 137 to 139 °C.

`CCn1nc(C(N)=O)cc1CC(C)(C)NC(=O)OC(C)(C)C`: the melting point was in the range of 178 to 180 °C.

Compound `O=C1Nc2cc(Br)ccc2Oc2cscc21` gave a melting point of 245 to 249 °C.

In the case of `CCOc1cccc(-n2cnc(-c3nc(CC)no3)c2)c1`, the melting point lay in the range of 120 to 121 °C.

In the case of `Cc1ccc(S(=O)(=O)OC[C@H]2CC[C@H](c3ccccc3)CC2)cc1`, the melting point was 108 to 109 °C.

With `N=C(Nc1ccc(Cl)cc1)Nc1ncccc1OCc1c(F)cc(F)cc1F`, the melting point was in the range of 161 to 162 °C.

`CCCCCCCCCCC#Cc1csc(C=O)n1`: the melting point is 25.5 to 26 °C.

`O=C1CCC(c2ccc3c(c2)OCO3)CC1` displayed a melting point of 92 to 93.5 °C.

`O=C(NCc1ccc(Cl)c(C(F)(F)F)c1)Nc1cccc2[nH]ccc12` gave a melting point of 197 °C.

Turning to `Cc1ccc2c([nH]c3c(C(=O)O)cccc32)c1Cl`, the melting point worked out at 266 °C.

As to `CCCN(CCC)C1CCc2c(ccc3[nH]cc(C(C)=O)c23)C1` (configuration not stated), the melting point was 196 to 197 °C.

Regarding `Cc1nc2[nH]c3ccccc3c2c(N)c1C(N)=O`, the melting point lay in the range of 305 to 308 °C.

In the case of `COc1ccc(N2CCN(c3c(C)c4c(c(C(C)O)c3C)OC(C)(C)C4)CC2)cc1` (configuration not stated), the melting point fell in the range of 183 to 186 °C.

Turning to `Cc1ncn(-c2ccc(C(=O)N3Cc4cccn4Cc4ccccc43)c(C(F)(F)F)c2)n1`, the melting point is 148 to 150 °C.

As a reminder, the melting point is the temperature of the solid-liquid transition.
